The values below come from patent US10208067B2, “Compounds for treating spinal muscular atrophy” (Hoffmann-La Roche Inc., priority 2015, dated 2019).

Read-outs that look alike come from different tables or passages of the source.

Test [1] concerns full length SMN2 minigene mRNA (HEK293H cells stably transfected with SMN2-A minigene). The test is described as follows: RT-qPCR assay for SMN2 minigene pre-mRNA splicing in cultured cells. It is filed as cell-based. The note with it: Homo sapiens, HEK293-H, 24 hours.
Test [2] has as its system SMN protein in SMA patient fibroblast cells (GM03813). The test is described as follows: SMN protein assay (HTRF) in cultured cells. The note with it: Homo sapiens, SMA Type 1 patient fibroblasts, 48 hours; for EC (1.5-fold): concentration producing 1.5 times SMN protein vs vehicle, read-out: EC1.5x SMN protein; for maximal fold induction: relative to vehicle control, read-out: max. fold increase of SMN protein. It is filed as cell-based. In short, it runs like this:
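SMA patient fibroblasts (5,000/well) exposed to compound for 48 h at 37° C., 7-point concentrations in triplicate, then RIPA-lysed and SMN measured by HTRF (anti-SMN d2/cryptate, overnight, room temperature).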

Where [3] appears, read: Table 3 (title: production of full length SMN2 minigene mRNA), read-out: EC1.5x SMN protein.

As to `Cc1nc2ccc(-c3cc(=O)n4cc(N5CC6(CCNC6)C5)cc(C)c4n3)nn2n1` [Example 48, 7-(2,7-diazaspiro[3.4]octan-2-yl)-9-methyl-2-(2-methyl-[1,2,4]triazolo[1,5-b]pyridazin-6-yl)pyrido[1,2-a]pyrimidin-4-one], in test [1] (setting [3]), the EC (1.5-fold) came out at 0.168 µM. In addition, in test [2], the EC (1.5-fold) came to 1.32 µM and the maximal fold induction is 1.68.
`Cc1nc2ncc(-c3cc(=O)n4cc(N5CCNC6(CC6)C5)ccc4n3)cn2n1` [Example 13, 7-(4,7-diazaspiro[2.5]octan-7-yl)-2-(2-methyl-[1,2,4]triazolo[1,5-a]pyrimidin-6-yl)pyrido[1,2-a]pyrimidin-4-one]: in test [1] (concentration increasing full length SMN2 minigene mRNA 1.5-fold vs vehicle, read-out: EC1.5x minigene), the EC (1.5-fold) is 2.55 µM. In test [2], the EC (1.5-fold) was found to be 14.1 µM and the maximal fold induction was 1.52.
`Cc1nc2ccc(-c3cc(=O)n4cc(N5CC[C@@H](N(C)C)C5)cc(C)c4n3)nn2n1` [Example 30, 7-[(3R)-3-(dimethylamino)pyrrolidin-1-yl]-9-methyl-2-(2-methyl-[1,2,4]triazolo[1,5-b]pyridazin-6-yl)pyrido[1,2-a]pyrimidin-4-one]: the EC (1.5-fold) was 0.0065 µM in test [1] (setting [3]) and 0.0279 µM in test [2]. Moreover, in test [2], the maximal fold induction is 1.98.
